Laboratory results as given in patent EP0428103A2, “Prevention of glycoprotein enveloped virus infectivity by pyridyloxazole-2-ones” (MERRELL DOW PHARMACEUTICALS INC., priority 1989, dated 1991).
Structures can show the parent of a compound that is named as a salt.

Assays:
[1] = test system: Moloney murine leukemia virus (MoLV); experiment: in vitro XC plaque assay; type: cell-based; conditions: mouse SC-1 cells; for Mean No. of Foci: control 84 foci
Description: This assay was performed according to the method of Rowe et al. (Virology, 1970, 42, 1136-39) as previously described by L. Hsu, et al. (J. Virological Methods, 1980, 1, 167-77) and T. L. Bowlin and M. R. Proffitt (J. Interferon Res., 1983, 3(1), 19-31). Mouse SC-1 cells (fibroblast) (10⁵) were seeded into each well of 6-well cluster plates (Costar #3506) in 4 ml Minimum Essential Medium (MEM) with 10% Fetal Calf Serum (FCS). Following an 18 hour incubation period (37°C), Moloney murine leukemia virus (MoLV) was applied at a predetermined titer to give optimal (i.e. countable) numbers of virus plaques. Compounds were added 2 hours prior to addition of the virus. Three days later the culture medium was removed, the SC-1 cell monolayers were exposed to UV irradiation (1800 ergs), and rat XC cells (10⁶) were seeded into each well in 4 ml MEM. Following an additional 3 day incubation (37°C), these cells were fixed with ethyl alcohol (95%) and stained with 0.3% crystal violet. Plaques were then counted under low magnification.

RF strain of HIV-1 = experiment: p24 antigen expression from HIV infected T-lymphocytes; type: cell-based; conditions: C8166 T cell line; for p24 Antigen: culture fluid after 3 days
Description: Cells (C8166 T cell line) were pretreated with test compounds at appropriate concentrations for 3 hours prior to virus (RF strain of HIV-1) absorption. Low multiplicity of infection was used and virus absorption period was 1 hour at room temperature. the cells were washed X1 in PBS and resuspended in fresh medium containing the appropriate concentrations of test compound. Cells incubated at 37°C and after 3 days culture fluid was assayed for p24 antigen as a measure of viral replication. Because these compounds were tested as the free base, they had to be taken up in DMSO and therefore a series of DMSO virus controls were needed for comparison.

HIV = conditions: CD4+ cells, Fields, et al., Nature, Vol. 333, 19 May 1988, cited from earlier work

| Compound | Mean No. of Foci ([1]; 0.10 µg/ml) | Mean No. of Foci ([1]; 0.25 µg/ml) | Mean No. of Foci ([1]; 0.5 µg/ml) | Mean No. of Foci ([1]; 0.75 µg/ml) | Mean No. of Foci ([1]; 1 µg/ml, compound added 2 hours prior to virus) | inhibition at 0.1 µg/mL ([1]; Murine leukemia virus, SC1, 0.10 µg/ml) [%] | inhibition at 0.25 µg/mL ([1]; Murine leukemia virus, SC1, 0.25 µg/ml) [%] | inhibition at 0.5 µg/mL ([1]; Murine leukemia virus, SC1, 0.5 µg/ml) [%] | inhibition at 0.75 µg/mL ([1]; Murine leukemia virus, SC1, 0.75 µg/ml) [%] | inhibition at 1 µg/mL ([1]; Murine leukemia virus, SC1, 1 µg/ml, compound added 2 hours prior to virus) [%] | p24 Antigen (RF strain of HIV-1; 1 µg/ml, DMSO 0.01 %, vehicle control 1027 pg/ml) [pg/mL] | p24 Antigen (RF strain of HIV-1; 10 µg/ml, DMSO 0.1 %, vehicle control 2408 pg/ml) [pg/mL] | inhibition at 1 µg/mL (RF strain of HIV-1; Human immunodeficiency virus 1, 72 h, 1 µg/ml, DMSO 0.01 %, 3 days) [%] | inhibition at 10 µg/mL (RF strain of HIV-1; Human immunodeficiency virus 1, 72 h, 10 µg/ml, DMSO 0.1 %, 3 days) [%] | HIV cell surface binding (HIV) | viral infectivity (HIV; accumulation of virus particles at the cell surface) |
| --- | --- | --- | --- | --- | --- | --- | --- | --- | --- | --- | --- | --- | --- | --- | --- | --- |
| CCCc1[nH]c(=O)oc1-c1ccncc1 [Test Compound, 4-propyl-5-(4-pyridinyl)-2(3H)-oxazolone] | 85 | 67 | 68 | 63 | 33 | 0 | 20 | 19 | 25 | 60.7 | 613 | 244 | 41 | 90 |  |  |
| CC1CNCCN1S(=O)(=O)c1cccc2cnccc12 (stereo not shown) [1,5-isoquinolinesulphonyl-2-methylpiperazine dihydrochloride] |  |  |  |  |  |  |  |  |  |  |  |  |  |  | does not interfere | inhibition of viral infectivity |
